Laboratory results reported in patent publication US7687609B2, “Galectin-glycosaminoglycan complex and method for controlling galectin activity” (National Institute of Advanced Industrial Science and …, priority 2006, dated 2010).

Key:
Galectin-3 [1] = target: T1, Galectin-3 (Homo sapiens, UniProt P17931); assay: FAC competitive inhibition test, binding of galectin-3 with LNnT; conditions: 5.0 nM PA-LNnT; for V2 − V0: V1 − V0 30.6 μl
T1 construct: made in house
Method: (§1) A model test on a competitive inhibition was carried out by FAC, in which binding of a galectin molecule with a carbohydrate which binds to the galectin molecule is inhibited by a glycosaminoglycan molecule. The FAC was carried out in accordance with the above-described example (1). In addition, as a model carbohydrate which is known to be bound to the galectin molecule, a pyridylamination product of lacto-N-neotetraose (LNnT hereinafter, Gal β1-4 GlcNAc β1-3 Gal β1-4 Glc, purchased from Seikagaku Corporation) was used.
(§2) In the test, 5.0 nM in final concentration of PA-LNnT sample solution was mixed with various concentration of glycosaminoglycan molecule (not pyridyl-aminated, namely an inhibitory carbohydrate) to measure the eluate volume (V2 value) by FAC, and the inhibition ratio (%) was calculated as follows from the eluate volume (V1 value) before the mixing and the eluate volume (V0 value) of a negative control sample. Inhibition ratio (%)=100×(V1−V2)/(V1−V0) Formula 1
(§3) In this connection, the unlabeled (not pyridyl-aminated) CH4, CH6, CH10, HA4 and CSA4 were respectively prepared at Seikagaku Corporation in accordance with a conventionally known method.

Galectin-1 = target: T2, Galectin-1 (Homo sapiens, UniProt P09382); assay: FAC affinity test on galectin-immobilized column; type: binding; conditions: pyridyl-aminated carbohydrate; galectin-1 immobilized 0.8 mg/ml; less than 5 μl = below interaction detection limit
T2 construct: made in house
T2 sequence (P09382 whole entry): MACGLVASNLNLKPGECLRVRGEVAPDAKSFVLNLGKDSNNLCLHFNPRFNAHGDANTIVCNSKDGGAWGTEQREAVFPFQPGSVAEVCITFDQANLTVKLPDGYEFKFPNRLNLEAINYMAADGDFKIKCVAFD
Method: (§4) Various galectin molecules-immobilized columns were prepared by the method described by Nakamura S, Yagi F, Totani K, Ito γ and Hirabayashi J in FEBS J., 272, 2784-2799 (2005), using NHS Sepharose (manufactured by Amersham Bioscience) as the carrier for immobilizing galectin molecules and in accordance with the instructions attached thereto (put in parentheses is immobilization concentration, mg galectin/ml carrier).
(§5) Each galectin molecule was immobilized onto the carrier at the following concentration; galectin-1 (0.8 mg/ml), galectin-3 (0.5 mg/ml), galectin-8N (3.6 mg/ml), galectin-8C (4.0 mg/ml), galectin-9N (3.6 mg/ml), galectin-9C (3.0 mg/ml). The carrier on which each galectin was immobilized was charged into a stainless steel miniature column (2 mm in inner diameter, 10 mm in length; manufactured by Shimadzu Corp.).
(§6) A high performance liquid chromatography (HPLC) system was equipped with a galectin molecule-immobilized column, and the test was carried out by the method described in Nakamura S, Yagi F, Totani K, Ito γ and Hirabayashi J in FEBS J., 272, 2784-2799 (2005).
(§7) As the negative control sample, pyridyl-aminated N-acetylglucosamine (PA-GlcNAc, manufactured by Takara Bio, pyridyl-aminated glycosaminoglycan-oligosaccharide sample control) or pyridyl-aminated pullulan (prepared by carrying out pyridylamination of standard pullulan manufactured by Shodex, pyridyl-aminated glycosaminoglycan polysaccharide sample control) was used, and a V−V0 value was calculated from their eluate volume (V0 value) measured by fluorescence detection and the eluate volume (V value) of the sample, namely pyridyl-aminated glycosaminoglycan carbohydrate, and this was used as the index of interaction strength (Protein, Nucleic Acid and Enzyme, 48(8), 1206-1212 (2003)).
(§8) V−V0 values of pyridyl-aminated glycosaminoglycans (HA, CH, DN, NAH, CSA, CSB, CSC, CSD, CSE, KS-I and KS-II) were calculated based on PA-GlcNAc, and V−V0 values of pyridyl-aminated glycosaminoglycan-oligosaccharides (G2K1, G1L1, G4L4, L2L2, L2L4, L4L4, SL2L4 and CH3 to CH12) based on pyridyl-aminated pullulan, respectively.
(§9) In this connection, when the calculated value of the V−V0 value was less than 5 μl, it was regarded as less than the interaction detection limit in this example.

Galectin-9N [2] = target: T3, Galectin-9N (Homo sapiens, UniProt O00182); assay: FAC affinity test on galectin-immobilized column; type: binding; conditions: pyridyl-aminated carbohydrate; galectin-9N immobilized 3.6 mg/ml; less than 5 μl = below interaction detection limit
T3 construct: N and C respectively represent N-terminal side carbohydrate-recognition domain and C-terminal side carbohydrate-recognition domain; made in house
T3 sequence (O00182 17-148 limits assumed): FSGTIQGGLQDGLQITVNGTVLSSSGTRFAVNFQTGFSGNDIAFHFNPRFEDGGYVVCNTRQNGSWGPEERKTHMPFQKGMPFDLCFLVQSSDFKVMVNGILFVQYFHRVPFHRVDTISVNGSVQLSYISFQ
Method: as §4, §5, §6, §7, §8, §9

Galectin-3 [3] = target: T1, Galectin-3; assay: FAC affinity test on galectin-immobilized column; type: binding; conditions: pyridyl-aminated carbohydrate; galectin-3 immobilized 0.5 mg/ml; less than 5 μl = below interaction detection limit
Method: as §4, §5, §6, §7, §8, §9

Galectin-9C = target: T4, Galectin-9C (Homo sapiens, UniProt O00182); assay: FAC affinity test on galectin-immobilized column; type: binding; conditions: pyridyl-aminated carbohydrate; galectin-9C immobilized 3.0 mg/ml; less than 5 μl = below interaction detection limit
T4 construct: N and C respectively represent N-terminal side carbohydrate-recognition domain and C-terminal side carbohydrate-recognition domain; made in house
T4 sequence (O00182 227-355 limits assumed): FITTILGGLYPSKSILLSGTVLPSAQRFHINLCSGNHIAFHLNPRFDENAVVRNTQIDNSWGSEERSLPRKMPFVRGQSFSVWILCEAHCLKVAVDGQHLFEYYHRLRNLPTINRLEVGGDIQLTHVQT
Method: as §4, §5, §6, §7, §8, §9

Galectin-9N [4] = target: T3, Galectin-9N; assay: FAC competitive inhibition test, binding of galectin-9N with LNnT; conditions: for Inhibition ratio / V2 − V0: 5.0 nM PA-LNnT; for V2 − V0: V1 − V0 20.3 μl
Method: as §1, §2, §3

[5] = final conc. 10 μM unlabeled inhibitor
[6] = final conc. 1 μM unlabeled inhibitor
[7] = final conc. 5 μM unlabeled inhibitor
[8] = final conc. 50 μM unlabeled inhibitor
[9] = final conc. 250 μM unlabeled inhibitor

T1 sequence (P17931 whole entry): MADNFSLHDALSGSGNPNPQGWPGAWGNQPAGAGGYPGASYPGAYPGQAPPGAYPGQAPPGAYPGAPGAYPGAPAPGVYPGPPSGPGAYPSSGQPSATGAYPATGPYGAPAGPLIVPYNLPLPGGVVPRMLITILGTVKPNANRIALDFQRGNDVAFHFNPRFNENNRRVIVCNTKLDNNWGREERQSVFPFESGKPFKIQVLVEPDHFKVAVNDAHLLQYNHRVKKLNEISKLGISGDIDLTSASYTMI

Row | Inhibition ratio (Galectin-3 [1]; [5]) | V2 − V0 (Galectin-3 [1]; [5]) | V − V0 Value (Galectin-1) | V − V0 Value (Galectin-9N [2]) | V − V0 Value (Galectin-3 [3]) | V − V0 Value (Galectin-9C) | Inhibition ratio (Galectin-9N [4]; [6]) | V2 − V0 (Galectin-9N [4]; [6]) | Inhibition ratio (Galectin-9N [4]; [7]) | V2 − V0 (Galectin-9N [4]; [7]) | Inhibition ratio (Galectin-9N [4]; [5]) | V2 − V0 (Galectin-9N [4]; [5]) | Inhibition ratio (Galectin-9N [4]; [8]) | V2 − V0 (Galectin-9N [4]; [8]) | Inhibition ratio (Galectin-3 [1]; [8]) | V2 − V0 (Galectin-3 [1]; [8]) | Inhibition ratio (Galectin-3 [1]; [9]) | V2 − V0 (Galectin-3 [1]; [9]) | Compound | inhibition of binding of galectin-9N with LNnT (in words) (Galectin-9N [4]; Table 5)
1 | 38.2% | 18.9 µL | <5.0 µL | 171.5 µL | 11.8 ± 3.3 µL | <5.0 µL |  |  |  |  |  |  |  |  |  |  |  |  | CC(=O)N[C@H]1[C@H](O[C@H]2[C@H](O)[C@@H](O)[C@H](O[C@H]3[C@@H](O)[C@@H](CO)O[C@@H](O[C@H]4[C@H](O)[C@@H](O)[C@H](O[C@H]5[C@@H](O)[C@@H](CO)O[C@@H](O[C@H]6[C@H](O)[C@@H](O)[C@H](O[C@H]7[C@@H](O)[C@@H](CO)O[C@@H](O[C@H]8[C@H](O)[C@@H](O)[C@H](O[C@H]9[C@@H](O)[C@@H](CO)OC(O)[C@@H]9NC(C)=O)O[C@@H]8C(=O)O)[C@@H]7NC(C)=O)O[C@@H]6C(=O)O)[C@@H]5NC(C)=O)O[C@@H]4C(=O)O)[C@@H]3NC(C)=O)O[C@@H]2C(=O)O)O[C@H](CO)[C@H](O)[C@@H]1O[C@@H]1O[C@H](C(=O)O)[C@@H](O)[C@H](O)[C@H]1O (stereo partly drawn) [CH10, GlcA β1-3 (GalNAc β1-4 GlcA β1-3)4 GalNAc] | 
2 | 12.7% | 26.7 µL | <5.0 µL | 45.3 ± 4.8 µL | <5.0 µL |  | 16.7% | 16.9 µL | 26.1% | 15.0 µL | 32.5% | 13.7 µL | 71.4% | 5.8 µL | 32.0% | 20.8 µL | 48.0% | 15.9 µL | CC(=O)N[C@H]1[C@H](O[C@H]2[C@H](O)[C@@H](O)[C@H](O[C@H]3[C@@H](O)[C@@H](CO)OC(O)[C@@H]3NC(C)=O)O[C@@H]2C(=O)O)O[C@H](CO)[C@H](O)[C@@H]1O[C@@H]1O[C@H](C(=O)O)[C@@H](O)[C@H](O)[C@H]1O (stereo partly drawn) [CH4, GlcA β1-3 GalNAc β1-4 GlcA β1-3 GalNAc] | inhibited by CH4 concentration-dependently
3 | 5.2% | 29.0 µL | <5.0 µL | 33.3 ± 3.0 µL | 5.8 ± 1.4 µL | <5.0 µL |  |  |  |  |  |  |  |  |  |  |  |  | CC(=O)N[C@H]1[C@H](O[C@H]2[C@H](O)[C@@H](O)[C@H](O[C@H]3[C@@H](O)[C@@H](CO)O[C@@H](O[C@H]4[C@H](O)[C@@H](O)[C@H](O[C@H]5[C@@H](O)[C@@H](CO)OC(O)[C@@H]5NC(C)=O)O[C@@H]4C(=O)O)[C@@H]3NC(C)=O)O[C@@H]2C(=O)O)O[C@H](CO)[C@H](O)[C@@H]1O[C@@H]1O[C@H](C(=O)O)[C@@H](O)[C@H](O)[C@H]1O (stereo partly drawn) [CH6, GlcA β1-3 (GalNAc β1-4 GlcA β1-3)2 GalNAc] | 
